Experimental data taken from patent publication US10272117B2, “Methods of using an activator of cereblon for neural cell expansion and the treatment of central nervous system disorders” (Celgene Corporation, priority 2014, dated 2019).

Experiments:
zebrafish embryos = assay: Whole-mount in situ hybridization of gene expression in zebrafish embryos; format: in vivo
Experimental: This process was carried out basically in accordance with the technique of Thisse et al. See High-resolution In Situ Hybridization to Whole-mount Zebrafish Embryos, Nat. Protcol., 3 (1) 59-69, (2008). The differences were that 5 mg/ml Torula yeast RNA was used as a blocker in the probe hybridization solution, and that 0.5% Blocking Reagent (Roche) was used as a blocker in the antibody reaction solution. The cDNA of the genes used as the probe (the six3.2 gene, the emx1 gene, the pax2.1 gene, the foxg1 gene, and the otx2 gene) were presents of the original provider. As the probe for the lhx2 gene, the one initially cloned by Ando was used. For the probes of the CRBN gene and related genes, primers were designed based on the EST database of zebrafish, and the probes were cloned from a cDNA library.
Expression of Pou5f1 (Oct3/4), Klf4, c-Myc, and HuC (Elavl3) in zebrafish embryos was analyzed by in situ hybridization. The embryos were fixed with 4% paraformaldehyde for 1 hour at room temperature and rinsed with phosphate buffered saline (PBS). The fixed embryos were refixed with 100% methanol and placed at −80° C. for over 12 hours. The embryos were defixed by rinsing with PBS, and the skin was digested with pronase (2 mg/ml), followed by refixation and defixation, and prehybridized in HYB* buffer (50% formamide, 5×SSC, 10 mM Citric acid, 0.1% Tween 20) for 15 minutes and in HYB+(added as 5 mg/ml torula (yeast) RNA, 50 μg/ml heparin to HYB*) for 1 hour at 65° C. After addition of 1 ng/μl of DIG (digoxigenin)-labeled probe, hybridization was performed for overnight at 65° C. After hybridization, the embryos were washed by 50% formamide in 2×SSC for 30 minutes (twice), 2×SSC for 15 minutes, 0.2×SSC for 30 minutes (twice) at 65° C. Then blocking treatment was done by 0.5% purified casein in PBSTw (PBS plus 0.1% Tween 20) at room temperature for 1 hour. After that, immunostaining was performed in 1/4000 dilution of anti-DIG Fab-AP fragment in 0.5% purified casein in PBSTw for 4 hours at room temperature.
After washing with PBSTw for 90 minutes, staining was carried out in the presence of substrate of alkaline phosphatase (Nitro blue tetrazolium and 5-bromo 4-chloro 3-indolyl phosphate) in 100 mM Tris pH 9.5, 50 mM MgCl2, 100 mM NaCl, and 0.1% Tween-20. Reaction was stopped by rapid exchange of reaction buffer to PBSTw and cleaned with glycerol serials (30%, 50%, and 70% in PBS).
Expression of Ascl1a and Pou3f2b in CRBN-overexpressing and Ikaros-knockdown zebrafish embryos was analyzed by in situ hybridization. The embryos were fixed with 4% paraformaldehyde for 1 hour at room temperature and rinsed with phosphate buffered saline (PBS). The fixed embryos were refixed with 100% methanol and placed at −80° C. for over 12 hours. The embryos were defixed by rinsing with PBS, and the skin was digested with pronase (2 mg/ml), followed by refixation and defixation, and prehybridized in HYB* buffer (50% formamide, 5×SSC, 10 mM Citric acid, 0.1% Tween 20) for 15 minutes and in HYB+(added as 5 mg/ml torula (yeast) RNA, 50 μg/ml heparin to HYB*) for 1 hour at 65° C. After addition of 1 ng/μl of DIG (digoxigenin)-labeled probe, hybridization was performed for overnight at 65° C. After hybridization, the embryos were washed by 50% formamide in 2×SSC for 30 minutes twice, 2×SSC for 15 minutes, 0.2×SSC for 30 minutes twice at 65° C. Then blocking treatment was done by 0.5% purified casein in PBSTw (PBS plus 0.1% Tween 20) at room temperature for 1 hour. After that, immunostaining was performed in 1/4000 dilution of anti-DIG Fab-AP fragment in 0.5% purified casein in PBSTw for 4 hours at room temperature.
Expression of Sox2, Pou5f1 (Oct3/4), c-Myc, and Klf4 in zebrafish embryos was analyzed in untreated and CRBN-overexpressing zebrafish embryos by in situ hybridization. Overexpression was performed as follows: single-cell stage embryos were microinjected with 250 ng/μl of capped mRNA synthesized in vitro. […]

zebrafish = assay: Resistance to thalidomide in brain development (brain thickness to body length); format: in vivo
Experimental: To analyze the functional relationship between thalidomide and BRD7, brain development of BRD7-knockdown zebrafish treated with thalidomide was examined and compared with that of normal zebrafish treated with thalidomide. […] FIGS. 12A and 12B show the normal zebrafish treated with 400 μM thalidomide. FIGS. 12C and 12D show the BRD7-knockdown zebrafish treated with 400 μM thalidomide. FIGS. 12A′ and 12C′ show the brain regions of the normal zebrafish treated with 400 μM thalidomide. FIGS. 12B′ and 12D′ show the brain regions of the BRD7-knockdown zebrafish treated with 400 μM thalidomide. […] The percentages of brain thickness to body length in the normal and the BRD7-knockdown zebrafish, with or without thalidomide treatments were also measured. […] The brain size of the BRD7-knockdown larvae incubated in thalidomide is 98.8% of that of the BRD7-knockdown larvae incubated in the absence of thalidomide.

| Substance | expression of Ascl1a (zebrafish embryos; 25 hpf) | expression of Pou3f2b (zebrafish embryos; 26 hpf) | expression of Pou5f1 (Oct3/4) in the second and fourth rhombomeres in the hindbrain (zebrafish embryos; 10 hpf and 11 hpf) | expression of Huc in the brain and spinal cord (zebrafish embryos; 11 hpf) | number of HuC-positive neural progenitor cells in the brain and spinal cord (zebrafish embryos; 15 hpf) | number of the telencephalic neurons and the spinal cord neurons (zebrafish embryos; 16 hpf) | expression of Klf4 in the rostral portion of the neural tube (zebrafish embryos; 18 hpf) | expression of c-Myc in the tectal proliferation zone and ciliary marginal zone (zebrafish embryos; 30 hpf) | brain size relative to normal larvae (zebrafish; in 400 μM of thalidomide, n=12) | brain development of BRD7-knockdown larvae (zebrafish; in thalidomide solution (400 μM)) | brain size relative to normal larvae (zebrafish; normal E3 medium, without thalidomide treatment) |
| --- | --- | --- | --- | --- | --- | --- | --- | --- | --- | --- | --- |
| 5′-TTCCTGTGCCTCCTCAGTCTCCATC-3′ (all phosphorodiamidate morpholino (PMO)) [Ikaros-knockdown, 25-mer antisense morpholino oligonucleotide (AMO) used for the Ikaros gene knockdown] | remarkably increased | increased | – | – | – | – | – | – | – | – | – |
| 5′-TGTGTTTCTTGTGCTTTTTGCCCAT-3′ (all phosphorodiamidate morpholino (PMO)) [BRD7-knockdown, 25-mer antisense morpholino oligonucleotide (AMO) used for the BRD7 gene knockdown] | – | – | increased | increased | increased | increased | increased | clearly increased | 140.0% | developed almost normally | 120.7% |
